Measured values published in ChEMBL document CHEMBL1201862, “PubChem BioAssay data set” (2004).
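Growth conditions: 96-well plates. Treatment: test compound, 48 hours, 5 concentrations. Analysis: linear interpolation between bracketing concentrations; unreached endpoints set to highest concentration. Here, GI50 denotes the concentration required for 50% inhibition of growth.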 Calls of active or inactive are those of the source. Cut-off read from the data, not from the text of the source: active = GI50 up to about 1.1 µM and inactive = higher.

Assays:
Assay in all cases: DTP human tumour cell line panel, 48 h
TK-10 = tested on: TK-10
UO-31 = tested on: UO-31
HCC 2998 = tested on: HCC 2998
UACC-257 = tested on: UACC-257
HCT-116 = tested on: HCT-116
EKVX = tested on: EKVX
NCI-H23 = tested on: NCI-H23
ACHN = tested on: ACHN
OVCAR-5 = tested on: OVCAR-5
NCI-H460 = tested on: NCI-H460
SK-MEL-5 = tested on: SK-MEL-5
HOP-62 = tested on: HOP-62
OVCAR-4 = tested on: OVCAR-4
SK-MEL-2 = tested on: SK-MEL-2
SN12C = tested on: SN12C
IGROV-1 = tested on: IGROV-1
SK-OV-3 = tested on: SK-OV-3

Structure (SMILES)	GI50 (TK-10)	GI50 (UO-31)	GI50 (HCC 2998)	GI50 (UACC-257)	GI50 (HCT-116)	GI50 (EKVX)	GI50 (NCI-H23)	GI50 (ACHN)	GI50 (OVCAR-5)	GI50 (NCI-H460)	GI50 (SK-MEL-5)	GI50 (HOP-62)	GI50 (OVCAR-4)	GI50 (SK-MEL-2)	GI50 (SN12C)	GI50 (IGROV-1)	GI50 (SK-OV-3)
NNC(=O)C(=O)N/N=C(\CCCC(=O)Nc1ccc(Cl)cc1)CC(=O)c1ccc(F)cc1	> 100 µM (inactive)	> 100 µM (inactive)	> 100 µM (inactive)	> 100 µM (inactive)	> 100 µM (inactive)	> 100 µM (inactive)	> 100 µM (inactive)	17.8 µM (inactive)	> 100 µM (inactive)	> 100 µM (inactive)	> 100 µM (inactive)	> 100 µM (inactive)	> 100 µM (inactive)	15.7 µM (inactive)	> 100 µM (inactive)	> 100 µM (inactive)	
C/C=C1\C=C(OC)CN(CCc2c[nH]c3ccccc23)C1	> 100 µM (inactive)	75 µM (inactive)	18 µM (inactive)	48.4 µM (inactive)	36.4 µM (inactive)	60.7 µM (inactive)	> 100 µM (inactive)	> 100 µM (inactive)		26 µM (inactive)	20.2 µM (inactive)	73.5 µM (inactive)	39.5 µM (inactive)	43.3 µM (inactive)	59.6 µM (inactive)	> 100 µM (inactive)	
COc1cccc(NC(=S)Nn2c(C)nc3ccccc3c2=O)c1	> 100 µM (inactive)	> 100 µM (inactive)		> 100 µM (inactive)	> 100 µM (inactive)		> 100 µM (inactive)	> 100 µM (inactive)	> 100 µM (inactive)	> 100 µM (inactive)	> 100 µM (inactive)	> 100 µM (inactive)	> 100 µM (inactive)	> 100 µM (inactive)	> 100 µM (inactive)	> 100 µM (inactive)	> 100 µM (inactive)
O=C(Nc1ccc([N+](=O)[O-])cc1)C1C(=O)C(=O)N(c2ccc([N+](=O)[O-])cc2)C1=O (stereo unspecified)	> 100 µM (inactive)	78 µM (inactive)	> 100 µM (inactive)	> 100 µM (inactive)	80.2 µM (inactive)	> 100 µM (inactive)	> 100 µM (inactive)	32.8 µM (inactive)	> 100 µM (inactive)	34.5 µM (inactive)	12 µM (inactive)	> 100 µM (inactive)		> 100 µM (inactive)	> 100 µM (inactive)	> 100 µM (inactive)	> 100 µM (inactive)
CCN(CC)CCNC(=O)c1cccc2cc3ccccc3nc12	4.79 µM (inactive)	3.45 µM (inactive)	5.89 µM (inactive)		3.52 µM (inactive)	5.73 µM (inactive)		3.45 µM (inactive)	6.21 µM (inactive)	2.88 µM (inactive)	4.52 µM (inactive)	10.4 µM (inactive)		7.53 µM (inactive)	5.18 µM (inactive)	5.2 µM (inactive)	8.93 µM (inactive)
O=C(O)c1c[nH]cc1C(=O)O	> 100 µM (inactive)	> 100 µM (inactive)		> 100 µM (inactive)	> 100 µM (inactive)	> 100 µM (inactive)	> 100 µM (inactive)		> 100 µM (inactive)	> 100 µM (inactive)	> 100 µM (inactive)	> 100 µM (inactive)	> 100 µM (inactive)		> 100 µM (inactive)	> 100 µM (inactive)	> 100 µM (inactive)
Cc1c(-c2coc(-c3ccccc3)n2)c(=O)n(-c2ccccc2)n1C	> 100 µM (inactive)	84.7 µM (inactive)	0.1 µM (active)	49.7 µM (inactive)	> 100 µM (inactive)		> 100 µM (inactive)	> 100 µM (inactive)	> 100 µM (inactive)	> 100 µM (inactive)	25.2 µM (inactive)	> 100 µM (inactive)	> 100 µM (inactive)	> 100 µM (inactive)	> 100 µM (inactive)	> 100 µM (inactive)	> 100 µM (inactive)
Cc1nc(-n2nc(-c3ccccc3)cc2-c2ccccc2)sc1C(=O)/C=C/c1ccccc1	> 100 µM (inactive)	17.9 µM (inactive)	> 100 µM (inactive)	> 100 µM (inactive)		32.9 µM (inactive)	> 100 µM (inactive)	> 100 µM (inactive)	> 100 µM (inactive)	> 100 µM (inactive)	23.5 µM (inactive)	> 100 µM (inactive)		> 100 µM (inactive)	> 100 µM (inactive)	75.5 µM (inactive)	> 100 µM (inactive)
CC(C)c1cccc(C(C)C)c1NC(=O)C(=O)C(C(=O)c1ccccc1-c1ccccc1)C1OC(=O)c2ccccc21 (stereo unspecified)	26.5 µM (inactive)	18.7 µM (inactive)	17.6 µM (inactive)	12.6 µM (inactive)	24.9 µM (inactive)	> 10 µM (inactive)	1.25 µM (inactive)	32.3 µM (inactive)	18.5 µM (inactive)	15 µM (inactive)	15.5 µM (inactive)		16 µM (inactive)	14.9 µM (inactive)	20.8 µM (inactive)	24.3 µM (inactive)	
